The source of these data is patent publication US20260001898A1, “Heteroaryl compounds as inhibitors of TYK2/JAK1, composition and application thereof” (Accro Bioscience (HK) Limited, priority 2022, published 2026).

The test system of one test is JAK1/JAK2 pathway. The test is described as follows: Western blot p-STAT1/STAT1 in IFN-γ-stimulated HT-29 cells. To be noted: IFN-γ 100 ng/mL. It counts as cell-based. The method, then:
HT-29 cells were digested by trypsin and suspended in Dulbecco's Modified Eagle Medium (DMEM) and counted. The tested compounds were added into the 6 well plates (400 000/per well). After 2 hours, IFN-γ (100 ng/mL) was added to stimulate cells for 30 minutes. The cells were collected and lysed with protein lysate. The protein was quantitatively tested by BCA kit. Finally, p-STAT1/STAT1 and internal reference protein β-actin were detected by Western blot.
A general note: In western blotting, separated proteins are transferred to a membrane and probed.

Test [1] deals with IFNα induced TYK2/JAK1 mediated STAT activation. The test is described as follows: Luciferase assay in L929 ISRE cells stimulated with IFN-α. The test is classed as cell-based. To be noted: IFN-α 100 ng/mL; for inhibition at 0.05 µM / inhibition at 0.2 µM / inhibition at 1 µM: Mus musculus; for inhibition at 0.05 µM: read-out: Inhibitory activity % (50 nM); for inhibition at 0.2 µM: read-out: Inhibitory activity % (200 nM); for inhibition at 1 µM: read-out: Inhibitory activity % (1000 nM). The method, then: • 1. L929 ISRE cells (5000 cells/well) were seeded on 96-well plates and incubated overnight at room temperature-; • 2. The cells were pretreated by adding different concentrations (10 nM, 50 nM, 100 nM, 200 nM or 1000 nM) of the test compounds for 2 hours; • 3. Added IFN-α (100 ng/mL) to stimulate cells for 6 hours; • 4. Removed the upper medium, add PBS (100 μL) and washed, then removed PBS; • 5. Added PLB lysis solution (50 μL) to each well, shook the well for 15 minutes; • 6. Transferred PLB lysis solution (30 μL) to a new 96-well whiteboard, added LAR II reagent (LAR II), then quickly read the 450 nm OD value with a plate washer; • 7. Added Stop & Glo reagent (30 μL), then read the 450 nm OD value using the plate washer. • 8. The final result was the OD value in step 6/OD value in step 7.

A further test concerns TYK2/JAK2 pathway. Briefly: Western blot p-STAT4/STAT4 in IL-12-stimulated mouse spleen cells. The test is classed as cell-based, mice. The following applies: IL-12 50 ng/mL. The method, then:
The spleen of mice was isolated and ground into single cells with bent tweezers. The single cells of the spleen were centrifuged for 5 minutes (400 g), and erythrocytes were lysed with Ammonium-Chloride-Potassium (ACK) solution and neutralized in 1640 medium, centrifuged for 5 minutes (400 g), and then re-suspended in 1640 medium. The spleen single cell suspension was counted, transferred to and incubated on a 6-well plate (5 million/well). The compounds to be tested were added. After 2 hours, IL-12 (50 ng/mL) was added to stimulate the cells for 1 h. The cells were collected and lysed with protein lysate. The protein was quantitatively tested by BCA kit. Finally, p-STAT4/STAT4 and internal reference protein […] were detected by Western blot.

The next test has as its system JAK2/JAK2 pathway. The test is described as follows: Western blot p-STAT3/STAT3 in TPO-stimulated HEL cells. The test is classed as cell-based. To be noted: TPO 100 ng/mL. On the procedure:
HEL cells were digested by trypsin, re-suspended in 1640 medium and counted. The compounds to be measured were added to 6 well plates (1 million/per well) for 2 hours, and then thrombopoietin (TPO)(final concentration: 100 ng/mL) was added to stimulate cells for 30 minutes. The cells were collected and lysed with protein lysate. The protein was quantitatively tested by bicinchoninic acid (BCA) kit. Finally, p-STAT3/STAT3 and internal reference protein β-actin were detected by Western blot.

Another test has as its system JAK2 and TYK2. To be noted: some studies, background; cited from earlier work.
The test system of test [2] is IFNα induced CXCL-10 in PBMC. The test is described as follows: ELISA of IFNα induced CXCL-10 in PBMC. The test is classed as cell-based. The following applies: IFNα induced CXCL-10 in PBMC. The method, then: • 1. Soak plate: Add 300 μL 1× washing solution and let stand for 30 seconds. After discarding the washing solution, anhydrous the microporous plate on absorbent paper. • 2. Add standard: Add 100 μL of 2-fold standard to standard well. Add 100 μL standard dilution (serum/plasma sample) or culture medium (cell culture supernatant sample) to blank well. • 3. Add sample: Serum/plasma: Add 50 μL 1× assay buffer and 50 μL sample to sample well. Cell culture supernatant: Add 100 μL cell culture supernatant to sample well. • 4. Add detection antibody: Add 50 μL diluted detection antibody (1:100 diluted) to each well. Make sure steps 4, 5 and 6 are added continuously without interruption. The sampling process was completed within 15 minutes. • 5. Incubation: Use sealing plate film to seal the plate. Shake at 300 rpm and incubate for 2 hours at room temperature. • 6. Washing: Discard the liquid, add 300 μL of washing solution and wash the plate 6 times. Pat anhydrous on blotting paper after each wash. To obtain the desired experimental performance, the residual liquid must be completely removed. • 7. Enzyme addition: Add 100 μL diluted horseradish peroxidase labeled streptavidin to each well (1:100 diluted). • 8. Incubation: Seal the plate with a new sealing film. Shake at 300 rpm and incubate at room temperature for 45 minutes. • 9. Washing: Repeat […]. • 10. Add substrate for color development: Add 100 μL of color development substrate TMB to each well, keep away from light, and incubate at room temperature for 5-30 minutes. • 11. Add Stop Solution: Add 100 μL stop solution to each well. The color changed from blue to yellow. If the color appears green or the color changes unevenly, gently tap the frame of the plate to mix well. • 12. Assay readout: Within 30 minutes, perform dual wavelength detection using a microplate reader to measure the OD at the absorption maximum at 450 nm and reference wavelengths at 570 nm or 630 nm. The calibrated OD value is the measured value at 450 nm minus the measured value at 570 nm or 630 nm.
Background: In an ELISA, binding on a coated surface is turned into a signal by an enzyme label.

As for `COc1c(Nc2cc(NC(=O)C3CC3)nnc2C(N)=O)cc(F)cc1-c1cc(P(=O)(C2CC2)C2CC2)n(C)n1` [Compound A8], in the test with JAK1/JAK2 pathway, the “effect on downstream STAT1 phosphorylation induced by IFN-γ (JAK1/JAK2 pathway)” value (“effect … (JAK1/JAK2 pathway)” for short) is “inhibited JAK1/JAK2 pathway in a concentration-dependent manner”. For the same compound, the inhibition at 0.05 µM in test [1] (50 nM compound) was determined as 84%. In addition, in test [1] (200 nM compound), the inhibition at 0.2 µM was 88%. The inhibition at 1 µM in test [1] (1000 nM compound) amounted to 96%. Further, in the test on TYK2/JAK2 pathway, the “inhibition of downstream STAT4 phosphorylation induced by IL-12 (TYK2/JAK2 pathway)” value (shortened to “inhibition … (TYK2/JAK2 pathway)”) is on record as “effectively inhibited the downstream STAT4 phosphorylation induced by IL-12”.

With `COc1c(Nc2cc(Nc3ccc(F)cn3)nnc2C(N)=O)cccc1-c1cc(P(=O)(C2CC2)C2CC2)n(C)n1` [Compound A9], in the test with JAK1/JAK2 pathway, the “effect … (JAK1/JAK2 pathway)” value is on record as “inhibited JAK1/JAK2 pathway in a concentration-dependent manner”. Also, the “inhibition … (TYK2/JAK2 pathway)” value in the test with TYK2/JAK2 pathway is given as “effectively inhibited the downstream STAT4 phosphorylation induced by IL-12”.

Turning to `COc1c(Nc2cc(Nc3cc(C)ccn3)nnc2C(N)=O)cccc1-c1cc(P(=O)(C2CC2)C2CC2)n(C)n1` [Compound A12], the “effect … (JAK1/JAK2 pathway)” value in the test on JAK1/JAK2 pathway is “inhibited JAK1/JAK2 pathway in a concentration-dependent manner”. In test [1] (50 nM compound), the inhibition at 0.05 µM turned out to be 25%. Further, the inhibition at 0.2 µM in test [1] (200 nM compound) amounted to 33%. Also, in test [1] (1000 nM compound), the inhibition at 1 µM stood at 93%. Further, the “inhibition … (TYK2/JAK2 pathway)” value with TYK2/JAK2 pathway was “effectively inhibited the downstream STAT4 phosphorylation induced by IL-12”. Besides, in the test with JAK2/JAK2 pathway, the “effect on TPO-induced downstream STAT3 phosphorylation (JAK2/JAK2 pathway)” value (“effect … (JAK2/JAK2 pathway)” below) was “had no effect on TPO-induced downstream STAT3 phosphorylation”.

As for `COc1c(Nc2cc(Nc3ccn(C)n3)nnc2C(N)=O)cccc1-c1cc(P(=O)(C2CC2)C2CC2)n(C)n1` [Compound A17], the “effect … (JAK1/JAK2 pathway)” value with JAK1/JAK2 pathway is on record as “inhibited JAK1/JAK2 pathway in a concentration-dependent manner”. Besides, the inhibition at 0.2 µM in test [1] (200 nM compound) is 42%. For the same compound, the inhibition at 1 µM in test [1] (1000 nM compound) came out at 82%. For the same compound, the “inhibition … (TYK2/JAK2 pathway)” value in the test with TYK2/JAK2 pathway is given as “effectively inhibited the downstream STAT4 phosphorylation induced by IL-12”. Also, in the test with JAK2/JAK2 pathway, the “effect … (JAK2/JAK2 pathway)” value is “had no effect on TPO-induced downstream STAT3 phosphorylation”.

On to `COc1c(Nc2cc(Nc3cc(C)ccn3)nnc2C(N)=O)cccc1-c1cc(P(C)(C)=O)n(C)n1` [Compound A29], for which the “effect … (JAK1/JAK2 pathway)” value in the test on JAK1/JAK2 pathway was “inhibited JAK1/JAK2 pathway in a concentration-dependent manner”. Also, in test [1] (1000 nM compound), the inhibition at 1 µM was found to be 93%. Moreover, in the test on TYK2/JAK2 pathway, the “inhibition … (TYK2/JAK2 pathway)” value was “effectively inhibited the downstream STAT4 phosphorylation induced by IL-12”. In the test on JAK2/JAK2 pathway, the “effect … (JAK2/JAK2 pathway)” value is “had no effect on TPO-induced downstream STAT3 phosphorylation”.

`COc1c(Nc2cc(Nc3cc(C#N)ccn3)nnc2C(N)=O)cccc1-c1cc(P(=O)(C2CC2)C2CC2)n(C)n1` [Compound A35]: in the test with JAK1/JAK2 pathway, the “effect … (JAK1/JAK2 pathway)” value is on record as “inhibited JAK1/JAK2 pathway in a concentration-dependent manner”. Also, the inhibition at 0.05 µM in test [1] (50 nM compound) was 54%. The inhibition at 0.2 µM in test [1] (200 nM compound) came out at 84%. Also, the inhibition at 1 µM in test [1] (1000 nM compound) was found to be 98%. The “inhibition … (TYK2/JAK2 pathway)” value in the test with TYK2/JAK2 pathway is given as “effectively inhibited the downstream STAT4 phosphorylation induced by IL-12”. Moreover, in the test on JAK2/JAK2 pathway, the “effect … (JAK2/JAK2 pathway)” value is “had no effect on TPO-induced downstream STAT3 phosphorylation”.

Take `[2H]C([2H])([2H])n1nc(-c2cccc(Nc3cc(Nc4cc(C#N)ccn4)nnc3C(N)=O)c2OC)cc1P(=O)(C1CC1)C1CC1` [Compound A49]: the “effect … (JAK1/JAK2 pathway)” value in the test with JAK1/JAK2 pathway was “inhibited JAK1/JAK2 pathway in a concentration-dependent manner”. In addition, the inhibition at 0.05 µM in test [1] (50 nM compound) stood at 33%. Moreover, in test [1] (200 nM compound), the inhibition at 0.2 µM amounted to 86%. For the same compound, the inhibition at 1 µM in test [1] (1000 nM compound) amounted to 87%. Besides, in the test with TYK2/JAK2 pathway, the “inhibition … (TYK2/JAK2 pathway)” value is on record as “effectively inhibited the downstream STAT4 phosphorylation induced by IL-12”. Moreover, in the test on JAK2/JAK2 pathway, the “effect … (JAK2/JAK2 pathway)” value is “had no effect on TPO-induced downstream STAT3 phosphorylation”.

Take `[2H]C([2H])([2H])n1nc(-c2cccc(Nc3cc(Nc4ccc(OC)cn4)nnc3C(N)=O)c2OC)cc1P(=O)(C1CC1)C1CC1` [Compound A50]: the “effect … (JAK1/JAK2 pathway)” value in the test on JAK1/JAK2 pathway is given as “inhibited JAK1/JAK2 pathway in a concentration-dependent manner”. Moreover, in test [1] (1000 nM compound), the inhibition at 1 µM is 77%. The “inhibition … (TYK2/JAK2 pathway)” value in the test with TYK2/JAK2 pathway is “effectively inhibited the downstream STAT4 phosphorylation induced by IL-12”. Further, the “effect … (JAK2/JAK2 pathway)” value in the test on JAK2/JAK2 pathway is recorded as “had no effect on TPO-induced downstream STAT3 phosphorylation”.

`Cn1cc(Nc2nccc(N3C[C@H]4CC[C@@H](C3)N4C(=O)[C@@H]3CC3(F)F)n2)cn1` [PF-06700841]: the “ratio of JAK2 IC50/TYK2 IC50” value in the test with JAK2 and TYK2 is “about 3.3”.

BMS986165 [reference compound]: in the test on JAK1/JAK2 pathway, the “effect … (JAK1/JAK2 pathway)” value is reported as “had no effect on downstream STAT1 phosphorylation induced by IFN-γ”. The same compound yielded an IC50 in test [2] of 16.6 nM. Besides, in test [1] (50 nM compound), the “Inhibitory activity % (50 nM)” value came out at 62%. Moreover, the “Inhibitory activity % (200 nM)” value in test [1] (200 nM compound) is listed as 94%. The “Inhibitory activity % (1000 nM)” value in test [1] (1000 nM compound) was 99%. In addition, the “effect … (JAK2/JAK2 pathway)” value with JAK2/JAK2 pathway is “had no effect on TPO-induced downstream STAT3 phosphorylation”.

In general, IC50 refers to the concentration at which inhibition is half-maximal. High values mean lower potency, low ones higher potency.
